Laboratory results: US20100173991A1, “METHOD FOR THE SYNTHESIS OF A-RING AROMATIZED ACETYL MINOCYCLINES” (priority 2007, published 2010)
Counter-ions that a name gives are not always drawn.

Experiments:
[1] = system: Astroglia cells, non neoplastic embryonal astrocyte cell line of the rat, damaged by H2O2; assay type: cell-based; settings: 30 min pre-incubation with 1.0, 5.0 or 25.0 μM, then 1.0 or 3.0 mM H2O2 for 2 hours; microscopic assessment of cell shape and mitochondria
Method: The test of the cell-protecting properties of the substances produced in the inventive method was carried out, exemplarily for a pure form of pentaacetyl cyclin of Formula II, by means of an astrocyte damaging model. This model is used for the examination of neurodegenerative diseases caused by oxidative stress or for the test of cell-protecting substances that can avoid or reduce such damage. In the exemplary model astrocytes are damaged by hydrogen peroxide (H2O2) and afterwards the functionality and morphology of the cells and mitochondria are microscopically assessed. An overproduction of H2O2 as reactive oxygen species (ROS) is considered to be, amongst others, the cause for many neurodegenerative processes and diseases in the CNS, such as stroke, Alzheimer's disease Parkinson's disease, post-traumatic injuries of the brain and spinal cord. Astonishingly, already much lower doses of pentaacetyl cyclin of Formula II could considerably reduce the damage of the mitochondria compared to the comparative substance minocycline hydrochloride (Example 3 and FIG. 4).
Astroglia cells, i.e. non neoplastic embryonal astrocyte cell line of the rat [Chamaon, K., Kirches, E., Kanakis, D., Braeuninger, S., Dietzmann, K., and Mawrin, C. (2005). […] A Zeiss Axiophot fluorescence microscope with CCD camera (AxioCam MRc) was used for the visual inspection and documentation. […]

[2] = system: E. coli C 600 hfc strain; assay: Antibiotic effect in the agar diffusion test; assay type: cell-based; settings: filter paper sheets soaked with DMSO solutions 100 μM to 2.5 mM; LB agar, 37° C., 24 hours
Method: The test of the antibiotic effect of the pentaacetyl cyclin obtained in the inventive method was performed by using an E. coli strain (Embodiment 4). […] The liquid culture (cultivated in LB-Lennox-L-Broth-Base for 24 hours) of an E. coli suspension (150 μl) of the C 600 hfc strain was evenly distributed on LB agar (Lennox-L-Agar, Gibco) by means of a sterile Drigalski spatula. Afterwards, sterile filter paper sheets (diameter 5.3 mm) that have been soaked with sterile DMSO solutions and different concentrations (100 μM to 2.5 mM) of minocycline hydrochloride or pentaacetyl cyclin (Formula II) were placed on the breeding ground. After the incubation of the agars at 37° C. for 24 hours, the antibiotic activity of the substances was assessed on the basis of the diameters of the inhibiting areolas that become visible due to the missing opacification by bacteria.

## CN(C)c1ccc(O)c2c1C[C@H]1C[C@H]3[C@H](N(C)C)C(O)=C(C(N)=O)C(=O)[C@@]3(O)C(O)=C1C2=O [minocycline hydrochloride, Minocycline hydrochloride, reference compound]
[1]
  concentration showing protective effect against H2O2-induced damage of cells/mitochondria: 25 µM

## CC(=O)NC(=O)c1c(OC(C)=O)c2c(c(N(C)C)c1OC(C)=O)CC1Cc3c(N(C)C)ccc(OC(C)=O)c3C(=O)C1=C2OC(C)=O (stereo not drawn) [pentaacetyl cyclin, A-ring aromatized pentaacetyl minocycline]
[2]
  growth inhibition of E. coli (inhibiting areolas): does not show any growth inhibition
[1]
  concentration showing protective effect against H2O2-induced damage of cells/mitochondria: 1.0 µM
